For the experiment, the target named is Acyl-homoserine lactone acylase PvdQ [A190E,F674L] (Pseudomonas aeruginosa, UniProt Q9I194, A190E/F674L). The experiment can be described thus: PvdQ IC50 Assay. The procedure: The assay was performed with nine compound concentrations that ranged from 3 nM to 19.5 µM with PvdQ concentration of 20 nM. The positive control, isopropyl dodecylfluorophosphonate (IDFP), was added in 24 selective wells to a final concentration of 200 µM. The assay plates were initially read at time = 0 and then incubated for 60 min at RT. The plates were read again at time = 60 min.
Sequence of Acyl-homoserine lactone acylase PvdQ [A190E,F674L] (Q9I194 whole entry, looked up, stated change not applied): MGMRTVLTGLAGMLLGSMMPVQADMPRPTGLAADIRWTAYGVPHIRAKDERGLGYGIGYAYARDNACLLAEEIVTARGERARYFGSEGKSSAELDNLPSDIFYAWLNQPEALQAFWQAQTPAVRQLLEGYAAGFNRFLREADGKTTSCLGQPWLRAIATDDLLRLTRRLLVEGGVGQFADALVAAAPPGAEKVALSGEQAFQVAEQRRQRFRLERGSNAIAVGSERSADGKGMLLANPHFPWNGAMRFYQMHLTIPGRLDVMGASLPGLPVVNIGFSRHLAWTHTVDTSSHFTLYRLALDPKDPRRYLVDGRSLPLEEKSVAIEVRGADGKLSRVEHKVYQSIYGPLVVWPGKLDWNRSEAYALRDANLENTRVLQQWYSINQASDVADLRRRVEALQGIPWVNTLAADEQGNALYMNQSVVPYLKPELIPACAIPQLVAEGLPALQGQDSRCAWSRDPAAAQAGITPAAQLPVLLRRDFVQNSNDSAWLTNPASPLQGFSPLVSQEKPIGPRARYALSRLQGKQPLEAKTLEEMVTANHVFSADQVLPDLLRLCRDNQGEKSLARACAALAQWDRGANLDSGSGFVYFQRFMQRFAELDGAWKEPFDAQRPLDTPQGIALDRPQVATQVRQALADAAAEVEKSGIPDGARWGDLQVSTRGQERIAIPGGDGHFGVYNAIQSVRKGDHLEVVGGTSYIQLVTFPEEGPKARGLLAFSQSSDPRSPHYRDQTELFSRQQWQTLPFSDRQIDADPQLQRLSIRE

On to `N#CC(c1ccc(Cl)cc1)c1ccc(C(F)(F)F)c(Cl)n1` (stereo not given) [2-(6-Chloro-5-(trifluoromethyl)pyridin-2-yl)-2-(4-chlorophenyl)acetonitrile (21)], for which the half-inhibitory concentration (IC50) was determined as 620 nM. The result for `CC(C#N)(c1ccc(Cl)cc1)c1ccc(C(F)(F)F)cn1` (stereo not given) [2-(4-Chlorophenyl)-2-(5-(trifluoromethyl)pyridin-2-yl)propanenitrile (54)] reads 1100 nM; that for `CCCCC(C#N)c1ccc(F)cc1` (stereo not given) [2-(4-Fluorophenyl)hexanenitrile (46)], 320 nM; that for `N#CC(c1ccc(C(F)(F)F)cn1)c1ccc(Cl)cc1F` (stereo not given) [2-(4-Chloro-2-fluorophenyl)-2-(5-(trifluoromethyl)-pyridin-2-yl)acetonitrile (31)], 10 nM. The result for `N#CC(c1ccc(C(F)(F)F)cc1)c1ccc(C(F)(F)F)c(Cl)n1` (stereo not given) [2-(6-Chloro-5-(trifluoromethyl)pyridin-2-yl)-2-(4-(trifluoromethyl)phenyl)acetonitrile (28)] reads 2300 nM; that for `N#CC(c1ccc(F)cc1)c1ccc(C(F)(F)F)c(Cl)n1` (stereo not given) [2-(6-Chloro-5-(trifluoromethyl)pyridin-2-yl)-2-(4-fluorophenyl)acetonitrile (27)], 740 nM; that for `Cc1ccc(C(C#N)c2ccc(Cl)cc2)nc1C#N` (stereo not given) [6-((4-Chlorophenyl)(cyano)methyl)-3-methyl picolinonitrile (22)], 180 nM. For `N#CC(c1ccc(C(F)(F)F)c(Cl)n1)c1ccc(Cl)cc1Cl` (stereo not given) [2-(6-Chloro-5-(trifluoromethyl)pyridin-2-yl)-2-(2,4-dichlorophenyl)acetonitrile (36)], half-maximal inhibition (IC50) was put at 970 nM.

Turning to `COCCC(C#N)c1ccc(Cl)cc1` (stereo not given) [2-(4-Chlorophenyl)-4-methoxybutanenitrile (41)], the half-maximal inhibitory concentration (IC50) came to 4800 nM.

As to `CCCCC(C#N)c1ccc(C(F)(F)F)cc1` (stereo not given) [2-(4-(Trifluoromethyl)phenyl)hexanenitrile (48)], the concentration for half-maximal inhibition (IC50) was over 10000 nM. The result for `N#CC(c1ccc(Cl)cc1Cl)c1ncccc1Cl` (stereo not given) [2-(3-Chloropyridin-2-yl)-2-(2,4-dichlorophenyl) acetonitrile (35)] reads 210 nM. Turning to `N#CC(c1ccc(Cl)cc1)c1cccc(C(F)(F)F)n1` (stereo not given) [2-(4-Chlorophenyl)-2-(6-(trifluoromethyl)pyridin-2-yl)acetonitrile (16)], the IC50 came out at 10 nM. Compound `N#CC(c1ccc(C(F)(F)F)cc1)c1cccc(Cl)n1` (stereo not given) [2-(6-Chloropyridin-2-yl)-2-(4-(trifluoromethyl)phenyl)acetonitrile (10)] registered a 50% inhibitory concentration (IC50) of 390 nM. Against the preceding compound, the IC50 is about 39-fold higher. The result for `N#CC(c1ccc(Cl)cc1)c1ccc(C(F)(F)F)cn1` (stereo not given) [2-(4-Chlorophenyl)-2-(5-(trifluoromethyl)pyridin-2-yl)acetonitrile (20)] reads 2400 nM; that for `CCCC(C#N)c1ccc(Cl)cc1` (stereo not given) [2-(4-Chlorophenyl)pentanenitrile (37)], 5900 nM; that for `Clc1ccc(C(c2cccc(Cl)n2)c2nnn[nH]2)cc1` (stereo not given) [2-Chloro-6-((4-chlorophenyl)(1H-tetrazol-5-yl)-methyl)pyridine (52)], 3400 nM. Compound `N#Cc1cccc(C(C#N)c2ccc(Cl)cc2Cl)n1` (stereo not given) [6-(Cyano(2,4-dichlorophenyl)methyl)picolinonitrile (33)] had an IC50 of 290 nM. This IC50 is about 12-fold lower than that of the compound before. Regarding `N#Cc1ccc(C(C#N)c2ccc(Cl)cc2)nc1` (stereo not given) [6-((4-Chlorophenyl)(cyano)methyl)nicotinonitrile (23)], the IC50 was 2500 nM. The result for `N#CC(c1ccc(C(F)(F)F)cc1)c1cccc(C(F)(F)F)n1` (stereo not given) [2-(4-(Trifluoromethyl)phenyl)-2-(6-(trifluoromethyl)pyridin-2-yl)acetonitrile (29)] reads 140 nM; that for `COCCOCCC(C#N)c1ccc(Cl)cc1` (stereo not given) [2-(4-Chlorophenyl)-4-(2-methoxyethoxy)butanenitrile (42)], 4700 nM.

As for `CCCCC(C#N)c1ccc(Cl)cn1` (stereo not given) [2-(5-Chloropyridin-2-yl)hexanenitrile (49)], the midpoint of inhibition, the IC50, lay at 3800 nM. The compound `N#CC(c1ccc(Cl)cc1)c1ccc(Cl)cn1` (stereo not given) [2-(4-Chlorophenyl)-2-(5-chloropyridin-2-yl) acetonitrile (14)] came in with a half-inhibitory concentration (IC50) of 130 nM. This IC50 lies about 29-fold lower than the previous one. The compound `N#CC(c1cccc(Cl)n1)c1ccc(Cl)cc1F` (stereo not given) [2-(4-Chloro-2-fluorophenyl)-2-(6-chloropyridin-2-yl) acetonitrile (13)] gave a 50% inhibitory concentration (IC50) of 60 nM. The result for `N#Cc1cccc(C(C#N)c2ccc(F)cc2)n1` (stereo not given) [6-(Cyano(4-fluorophenyl)methyl)picolinonitrile (25)] reads 130 nM; that for `N#CC(c1ccc(Cl)cc1)c1ccccn1` (stereo not given) [2-(4-Chlorophenyl)-2-(pyridin-2-yl)acetonitrile (24)], 270 nM; that for `N#CC(c1ccc(Cl)cc1)c1ncccc1Cl` (stereo not given) [2-(4-Chlorophenyl)-2-(3-chloropyridin-2-yl) acetonitrile (15)], 10 nM. In turn, `N#Cc1cccc(C(C#N)c2ccc(Cl)cc2)n1` (stereo not given) [6-((4-Chlorophenyl)(cyano)methyl)picolinonitrile (17)] registered an IC50 of 180 nM. Against the preceding compound, the IC50 is about 18-fold higher. For the compound `N#CC1c2ccc(Cl)cc2CCc2cccnc21` (stereo not given) [8-Chloro-6,11-dihydro-5H-benzo[5,6]cyclohepta[1,2-b]pyridine-11-carbonitrile (55)], inhibition was half-maximal at 9100 nM (IC50). Against the preceding compound, the IC50 is about 51-fold higher. Consider `N#CC(c1ccc(C(F)(F)F)c(Cl)n1)c1ccc(Cl)cc1F` (stereo not given) [2-(4-Chloro-2-fluorophenyl)-2-(6-chloro-5-(trifluoro-methyl)pyridin-2-yl)acetonitrile (32)], for which inhibition was half-maximal at 630 nM (IC50).

Turning to `N#CC(CC1CC1)c1ccc(Cl)cc1` (stereo not given) [2-(4-Chlorophenyl)-3-cyclopropylpropanenitrile (40)], the IC50 worked out at 540 nM.

Compound `COCCC(C#N)c1ccc(F)cc1` (stereo not given) [2-(4-Fluorophenyl)-4-methoxybutanenitrile (47)] showed an IC50 of 290 nM. With `N#CC(c1cccc(Cl)n1)c1ccccc1OC(F)(F)F` (stereo not given) [2-(6-Chloropyridin-2-yl)-2-(2-(trifluoromethoxy)-phenyl)acetonitrile (11)], the IC50 stood at 1700 nM. In turn, `CC(C)CC(C#N)c1ccc(Cl)cc1` (stereo not given) [2-(4-Chlorophenyl)-4-methylpentanenitrile (39)] returned a half-inhibitory concentration (IC50) of 290 nM. As to `N#Cc1ccc(C(C#N)c2ccc(Cl)cc2Cl)nc1` (stereo not given) [6-(Cyano(2,4-dichlorophenyl)methyl)nicotinonitrile (34)], inhibition was half-maximal at 1800 nM (IC50). `N#Cc1cccc(C(C#N)c2ccc(Cl)cc2F)n1` (stereo not given) [6-((4-Chloro-2-fluorophenyl)(cyano)methyl) picolinonitrile (30)] yielded an IC50 of 110 nM. The result for `CCCCC(c1ccc(Cl)cc1)c1nnn[nH]1` (stereo not given) [5-(1-(4-Chlorophenyl)pentyl)-1H-tetrazole (53)] reads 6700 nM; that for `N#CC(c1ccc(F)cc1)c1cccc(C(F)(F)F)n1` (stereo not given) [2-(4-Fluorophenyl)-2-(6-(trifluoromethyl)pyridin-2-yl) acetonitrile (4)], 20 nM; that for `CCCCC(C#N)c1ccc(Cl)cc1` (stereo not given) [2-(4-Chlorophenyl)hexanenitrile (38)], 1400 nM. For `CCCCC(C#N)c1ccccn1` (stereo not given) [2-(Pyridin-2-yl)hexanenitrile (51)], the midpoint of inhibition, the IC50, lay at 8400 nM. This IC50 lies about 6-fold higher than the previous one. The compound `N#CC(c1cccc(Cl)n1)c1ccc(Cl)cc1Cl` (stereo not given) [2-(6-Chloropyridin-2-yl)-2-(2,4-dichlorophenyl) acetonitrile (12)] gave an IC50 of 250 nM.

For the origin of these results see BindingDB's records for doi:10.1021/cb5001586 (The Broad Institute , Cambridge, Massachusetts 02142, …, 2014).
